From US7034042B2, “N-(4-aryloxypiperidin-1-ylalkyl) cinnamic amides as CCR33 receptor antagonists” (Novartis AG, priority 2000, dated 2006)

Biological target: T1, human CCR-3 (Homo sapiens, UniProt P51677)
T1 construct: expressed in transfected cells; membranes
T1 sequence (P51677 1-355): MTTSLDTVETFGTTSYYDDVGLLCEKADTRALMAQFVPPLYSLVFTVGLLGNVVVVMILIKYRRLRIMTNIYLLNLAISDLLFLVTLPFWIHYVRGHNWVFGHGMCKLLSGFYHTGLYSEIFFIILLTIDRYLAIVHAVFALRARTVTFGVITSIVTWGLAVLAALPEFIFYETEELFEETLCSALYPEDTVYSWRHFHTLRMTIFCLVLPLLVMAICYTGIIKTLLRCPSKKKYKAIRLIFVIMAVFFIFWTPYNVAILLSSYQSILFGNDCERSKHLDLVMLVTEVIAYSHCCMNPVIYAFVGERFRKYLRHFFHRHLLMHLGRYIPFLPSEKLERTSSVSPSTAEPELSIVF
Test: CCR-3 Binding Assay (inhibition of [125I]-human eotaxin binding, SPA)
Settings: binding of [125I]-human eotaxin to membranes of RBL-2H3 cells stably expressing CCR3; 4 hours at room temperature
Experimental: In this assay the effect of agents of the invention on the binding of human eotaxin to human CCR-3 is determined. Recombinant cells expressing human CCR-3 are captured by wheatgerm agglutinin (WGA) polyvinyltoluidene (PVT) SPA beads (available from Amersham), through a specific interaction between the WGA and carbohydrate residues of glycoproteins on the surface of the cells. [^125I]-human eotaxin (available from Amersham) binds specifically to CCR-3 receptors bringing the [^125I]-human eotaxin in close proximity to the SPA beads. Emitted â-particles from the [^125I]-human eotaxin excite, by its proximity, the fluorophore in the beads and produce light.
Preparation of Assay Buffer: 5.96 g HEPES and 7.0 g sodium chloride are dissolved in distilled water and 1M aqueous CaCl2 (1 mL) and 1M aqueous MgCl2 (5 mL) are added. The pH is adjusted to 7.6 with NaOH and the solution made to a final volume of 1 L using distilled water. 5 g bovine serum albumin and 0.1 g sodium azide are then dissolved in the solution and the resulting buffer stored at 4° C. A Complete™ protease inhibitor cocktail tablet (available from Boehringer) is added per 50 mL of the buffer on the day of use.
Preparation of Homogenisation Buffer: Tris-base (2.42 g) is dissolved in distilled water, the pH of the solution is adjusted to 7.6 with hydrochloric acid and the solution is diluted with distilled water to a final volume of 1 L. The resulting buffer is stored at 4° C. A Complete™ protease inhibitor cocktail tablet is added per 50 mL of the buffer on the day of use.
Preparation of membranes: Confluent rat basophil leukemia (RBL-2H3) cells stably expressing CCR3 are removed from tissue culture flasks using enzyme-free cell dissociation buffer and resuspended in phosphate-buffered saline. […]
The assay is performed in a final volume of 250 μL per well of an Optiplate (ex Canberra Packard). […] The resulting scintillations are counted using a Canberra Packard TopCount, each well being counted for 1 minute. […]

| IC50 | Compound |
| --- | --- |
| 16 nM | COc1ccc(C#N)cc1/C=C/C(=O)NC(CO)CN1CCC(Oc2ccc(F)cc2)CC1 (stereo not drawn) [Example 1, (E)-3-(5-Cyano-2-methoxy-phenyl)-N-{2-[4-(4-fluoro-phenoxy)-piperidin-1-yl]-1-hydroxymethyl-ethyl}-acrylamide] |
| 11 nM | COc1ccc(C#N)cc1/C=C/C(=O)N[C@H](CC(=O)N(C)CCO)CN1CCC(Oc2ccc(F)cc2)CC1 [Example 14, (E)-3-(5-Cyano-2-methoxy-phenyl)-N-((R)-2-[4-(4-fluoro-phenoxy)-piperidin-1-yl]-1-{[(2-hydroxy-ethyl)-methyl-carbamoyl]-methyl}-ethyl)-acrylamide] |
| 2.8 nM | COc1ccc(C#N)cc1/C=C/C(=O)N[C@H](CNC(C)=O)CN1CCC(Oc2ccc(F)cc2)CC1 [Example 16, (E)-N-{(R)-1-(Acetylamino-methyl)-2-[4-(4-fluoro-phenoxy)-piperidin-1-yl]-ethyl}-3-(5-cyano-2-methoxy-phenyl)-acrylamide] |
